SMILES strings stand for the structures.

The subject of the assay is production of TNFα in U937. Description: Releasing TNFα from U937 induced by LPS. It counts as cell-based. As to conditions: Homo sapiens, U-937; PMA-differentiated U937, LPS 100 ng/ml, 4 h; read-out: IC50 value that the compound inhibits the production of TNFα. An excerpt: Cytokine regulation in human monocytes has shown that the p38 pathway is the key to the biosynthesis of a plurality of pro-inflammatory cytokines including TNFα, IL-1β and IL-6. Therefore, the inhibition of the p38 MAPK pathway is to reduce inflammatory response by reducing the biosynthesis of the pro-inflammatory cytokines. […] This is a reflection of the effect of the compound in the present invention to facilitate reduction of inflammation, which is useful in the treatment of various diseases, including chronic inflammatory diseases, acute inflammatory diseases, or self-inflammatory diseases. The potency and efficacy of the p38 inhibitor in blocking cytokine production are evaluated using a human U937 cell line.
A 1640 medium with an article number being A10491-01, Gibco; penicillin-streptomycin with an article number being 15140-122, Gibco; fetal bovine serum with an article number being 10099-141C, Gibco; PBS with an article number being 10010-031, Gibco; LPS with an article number being L2880, Sigma; PMA with an article number being P1585, Sigma; dimethyl sulfoxide with an article number being D8418-1L, Sigma; and a TNFα kit with an article number being K151QWD-4, MSD.
A 96-well plate with an article number being 3599, Corning; a plate-vibrating device with an article number being QB-9002, QILINBEIER; a centrifuge with an article number being 5810R, Eppendorf; a carbon dioxide incubator with an article number being 371, Thermo; a counter with an article number being C10281, Gibco; a microscope with an article number being CKX41, OLYMPUS; and an MSD plate reader with an article number being 1201 MESO SECTOR 600, MSD.
U937, ATCC with an article number being CRL-1593.2.
About 2 mg of a drug is weighted; a mother solution is prepared to 10 mM (which is calculated by free alkali) by means of DMSO; and the mother solution is diluted 10-fold to 1 mM, and then is successively diluted 4-fold to 250 μM, 62.5 μM, 15.6 μM, 3.9 μM, 0.97 μM, 0.24 μM, and 0.061 μM. The above series of diluted DMSO drugs is diluted 20-fold as working solutions by using media.
At Day 0, 10000/well inoculation is performed, stimulation is performed for 48 h with 20 ng/ml of PMA, and culture is performed at 37° C., 5% CO2. • At Day 2, 1. Supernatant is removed from differentiated U937, cleaning is performed once with PBS, and 96 μl of the 1640 medium is added. • 2. 2 μl of the compound containing (DMSO with a final concentration being 0.1%), and culture is performed for 30 min at 37° C., 5% CO2. • 3. 2 μl of LPS (a final concentration being 100 ng/ml) is added, cells are stimulated, and culture is performed for 4 h at 37° C., 5% CO2. • 4. Centrifugation is performed, supernatant is taken, and content of TNFα in the supernatant is determined through ELISA.
The content of TNFα corresponding to each well is calculated by using a standard curve in the kit.
The compound IC50 is calculated by using a GraphPad nonlinear fitting formula, and for an experimental result, refer to Table 1.
By IC50 is commonly meant the concentration that gives 50% inhibition. For `Cc1cnc(-n2cccc(C(C)(C)O)c2=O)cc1-n1c(C)cc(OCc2ccc(F)cn2)c(Cl)c1=O` [Embodiment 21, 3″-chloro-4″-((5-fluoropyridine-2-yl)methoxy)-3-(2-hydroxypropane-2-yl)-5′,6″-dimethyl-2H,2″H-[1,2′:4′,1″-terpyridine]-2,2″-diketone], the IC50 came to 7.11 nM. For `Cc1cnc(-n2ccc(C)c(C(C)(C)O)c2=O)cc1-n1c(C)cc(OCc2ncc(F)cc2F)c(Cl)c1=O` [Embodiment 29, 3″-chloro-4″-((3,5-difluoropyridine-2-yl)methoxy)-3-(2-hydroxypropane-2-yl)-4,5′,6″-trimethyl-2H, 2″H-[1,2′:4′,1″-terpyridine]-2,2″-diketone], the half-inhibitory concentration (IC50) was determined as 15.1 nM. In the case of `Cc1cnc(-n2cccc(C(C)(C)O)c2=O)cc1-n1c(C)cc(OCc2ncc(Cl)cc2F)c(Cl)c1=O` [Embodiment 5, 3″-chloro-4″-((3-fluoro-5-chloropyridine-2-yl)methoxy)-3-(2-hydroxypropane-2-yl)-5′,6″-dimethyl-2H,2″H-[1,2′:4′,1″-terpyridine]-2,2″-diketone], the IC50 was found to be 4.05 nM.

With `Cc1cnc(-n2cccc(C(C)(C)O)c2=O)cc1-n1c(C)cc(OCc2ccc(Cl)cn2)c(Cl)c1=O` [Embodiment 14, 3″-chloro-4″-((5-chloropyridine-2-yl)methoxy)-3-(2-hydroxypropane-2-yl)-5′,6″-dimethyl-2H,2″H-[1,2′:4′,1″-terpyridine]-2,2″-diketone], the IC50 was determined as 8.21 nM.

As for `Cc1cnc(-n2cccc(C(C)O)c2=O)cc1-n1c(C)cc(OCc2ncc(F)cc2F)c(Cl)c1=O` (stereo not drawn) [Embodiment 24, 3″-chloro-4″-((3,5-difluoropyridine-2-yl)methoxy)-3-(1-hydroxyethyl)-5′,6″-dimethyl-2H,2″H-[1,2′:4 1″-terpyridine]-2,2″-diketone], the 50% inhibitory concentration (IC50) turned out to be 11.2 nM. Take `Cc1cnc(-n2cccc(C(C)(C)O)c2=O)cc1-n1c(C)cc(OCc2ccc(F)cc2F)c(Cl)c1=O` [Embodiment 4, 3″-chloro-4″-((2,4-difluorobenzyl)oxy)-3-(2-hydroxypropane-2-yl)-5′,6″-dimethyl-2H,2″H-[1,2′:4′,1″-terpyridine]-2,2″-diketone]: the IC50 was found to be 2.05 nM. As for `Cc1cnc(-n2cccc(C(C)(C)O)c2=O)cc1-n1c(C)cc(OCc2c(F)cccc2C#N)c(Cl)c1=O` [Embodiment 13, 2-(((3″-chloro-3-(2-hydroxypropane-2-yl)-5′,6″-dimethyl-2,2″-dione-2H,2″H-[1,2′:4′,1″-terpyridine]-4″-yl)oxy)methyl)-3-fluorobenzonitrile], the half-inhibitory concentration (IC50) was determined as 4.26 nM. In the case of `Cc1cc(C(C)(C)O)c(=O)n(-c2cc(-n3c(C)cc(OCc4ncc(F)cc4F)c(Cl)c3=O)c(C)cn2)c1` [Embodiment 35, 3″-chloro-4″-((3,5-difluoropyridine-2-yl)methoxy)-3-(2-hydroxypropane-2-yl)-5,5′,6″-trimethyl-2H, 2″H-[1,2′:4′,1″-terpyridine]-2,2″-diketone] it was 24.3 nM; in that of `Cc1cnc(-n2cccc(C(C)(C)O)c2=O)cc1-n1c(C)cc(OCc2ccc(C#N)cc2F)c(Cl)c1=O` [Embodiment 8, 4-(((3″-chloro-3-(2-hydroxypropane-2-yl)-5′,6″-dimethyl-2,2″-dioxo-2H,2″H-[1,2 2′:4′,1″-terpyridine]-4″-yl)oxy)methyl)-3-fluorobenzonitrile], 14.4 nM; in that of `Cc1cnc(-n2cccc(C(C)(C)O)c2=O)cc1-n1c(C)cc(OCc2ncccc2C)c(Cl)c1=O` [Embodiment 12, 3″-chloro-4″-((3-methylpyridin-2-yl)methoxy)-3-(2-hydroxypropane-2-yl)-5′,6″-dimethyl-2H,2″H-[1,2′:4′,1″-terpyridine]-2,2″-diketone], 5.09 nM. `Cc1cnc(-n2cccc(C(C)(C)O)c2=O)cc1-n1c(C)cc(OCc2c(F)cccc2F)c(Cl)c1=O` [Embodiment 15, 3″-chloro-4″-((2,6-difluorophenyl)methoxy)-3-(2-hydroxypropane-2-yl)-5′,6″-dimethyl-2H,2″H-[1,2′:4′,1″-terpyridine]-2,2″-diketone]: the IC50 came out at 1.6 nM.

`Cc1cnc(-n2cccc(C(C)(C)O)c2=O)cc1-n1c(C)cc(OCc2cc(F)ccc2F)c(Cl)c1=O` [Embodiment 18, 3″-chloro-4″-((2,5-difluorobenzyl)oxy)-3-(2-hydroxypropane-2-yl)-5′,6″-dimethyl-2H,2″H-[1,2′:4′,1″-terpyridine]-2,2″-diketone]: the 50% inhibitory concentration (IC50) turned out to be 2.39 nM. On to `Cc1cnc(-n2cccc(C(C)(C)O)c2=O)cc1-n1c(C)cc(OCc2ccc(F)c(F)c2)c(Cl)c1=O` [Embodiment 23, 3″-chloro-4″-((3,4-difluorobenzyl)oxy)-3-(2-hydroxypropane-2-yl)-5′,6″-dimethyl-2H,2″H-[1,2′:4′,1″-terpyridine]-2,2″-diketone], for which the IC50 was found to be 5.53 nM. Turning to `Cc1cnc(-n2cccc(C(C)(C)O)c2=O)cc1-n1c(C)cc(OCc2ncccc2Cl)c(Cl)c1=O` [Embodiment 19, 3″-chloro-4″-((3-chloropyridine-2-yl)methoxy)-3-(2-hydroxypropane-2-yl)-5′,6″-dimethyl-2H,2″H-[1,2′:4′,1″-terpyridine]-2,2″-diketone], the IC50 was found to be 8.11 nM. As for `Cc1cnc(-n2cccc(C(C)(C)O)c2=O)cc1-n1c(C)cc(OCc2ncc(F)cc2Cl)c(Cl)c1=O` [Embodiment 25, 3″-chloro-4″-((3-chloro-5-fluoropyridine-2-yl)methoxy)-3-(2-hydroxypropane-2-yl)-5′,6″-dimethyl-2H,2″H-[1,2′:4′,1″-terpyridine]-2,2″-diketone], the concentration for half-maximal inhibition (IC50) was 6.06 nM.

For the molecule `Cc1cnc(-n2cccc(C(C)(C)O)c2=O)cc1-n1c(C)cc(OCc2cccnc2)c(Cl)c1=O` [Embodiment 30, 3″-chloro-3-(2-hydroxypropane-2-yl)-5′,6″-dimethyl-4″-((pyridin-3-yl)methoxy)-2H,2″H-[1,2′:4′,1″-terpyridine]-2,2″-diketone], the half-inhibitory concentration (IC50) came to 11.9 nM. The figure for `Cc1cnc(-n2cccc(C(C)(C)O)c2=O)cc1-n1c(C)cc(OCc2ccc(Cl)cc2F)c(Cl)c1=O` [Embodiment 9, 3″-chloro-4″-((4-chloro-2-fluorobenzyl)oxy)-3-(2-hydroxypropane-2-yl)-5′,6″-dimethyl-2H,2″H-[1,2′:4′,1″-terpyridine]-2,2″-diketone] is 2.72 nM; for `Cc1cnc(-n2cccc(C(C)(C)O)c2=O)cc1-n1c(C)cc(OCc2ncc(C3CC3)cc2F)c(Cl)c1=O` [Embodiment 27, 3″-chloro-4″-((3-fluoro-5-cyclopropylpyridine-2-yl)methoxy)-3-(2-hydroxypropane-2-yl)-5′,6″-dimethyl-2H,2″H-[1,2′:4′,1″-terpyridine]-2,2″-diketone] it is 16.6 nM.

The values are drawn from US20240166627A1, “Terpyridinedione compound or salt thereof, and preparation method and application thereof” (SHENZHEN SALUBRIS PHARMACEUTICALS CO., LTD., priority 2021, published 2024).
